Results from patent US20260242363A1, “SUBSTITUTED 6-(PYRIMIDIN-4-YL)QUINOLINE COMPOUNDS AS CYCLIN DEPENDENT KINASE INHIBITORS” (BeOne Medicines I GmbH, priority 2023, published 2026).

How the values were obtained:
CDK4/Cyclin D1 = CDK4/Cyclin D1 (Homo sapiens, UniProt P11802); assay: CDK4/Cyclin D1 kinase inhibition TR-FRET assay; format: biochemical; conditions: 1 mM ATP, 0.15 μM Rb (Ser780)-biotin substrate, read-out: CDK4D1 IC50
Method: (§1) Compounds disclosed herein were tested for inhibition of CDK4/Cyclin D1 or CDK6/Cyclin D3 kinase in an assay based on the time-resolved fluorescence-resonance energy transfer (TR-FRET) methodology. The assay was carried out in 384-well low volume black plates in a reaction mixture containing CDK4/Cyclin D1 or CDK6/Cyclin D3, 1 mM ATP, 0.15 μM Rb (Ser780)-biotin substrate and 0-10 μM compound in buffer containing 50 mM HEPES pH7.0, 0.02% NaN3, 0.01% BSA, 0.1 mM Orthovanadate, 50 mM MgCl2, 1 mM DTT and 0.005% Tween-20. The kinase was incubated with compound for 60 minutes at room temperature and the reaction was initiated by the addition of ATP and Rb (Ser780)-biotin substrate. After reaction at room temperature for 120 minutes, an equal volume of stop/detection solution was added according to the manufacture's instruction (Cisbio Bioassays). The stop/detection solution contained Streptavidin-XL665 and Anti-pRb (Ser780) mAb-Eu Cryptate in Detection buffer (Cisbio Bioassays). Plates were incubated at room temperature for 60 minutes, and the TR-FRET signals (ex337 nm, em665 nm/620 nm) were recorded on a PHERAstar FSX plate reader (BMG Labtech). The inhibition percentage of CDK4/Cyclin D1 or CDK6/Cyclin D3 kinase activity in presence of increasing concentrations of compounds was calculated based on the ratio of fluorescence at 665 nm to that at 620 nm. The IC50 for each compound was derived from fitting the data to the four-parameter logistic equation by Dotmatics.

CDK6/Cyclin D3 = CDK6/Cyclin D3 (Homo sapiens, UniProt Q00534); assay: CDK6/Cyclin D3 kinase inhibition TR-FRET assay; format: biochemical; conditions: 1 mM ATP, 0.15 μM Rb (Ser780)-biotin substrate, read-out: CDK6D3 IC50
Sequence of CDK6/Cyclin D3 (Q00534 whole entry): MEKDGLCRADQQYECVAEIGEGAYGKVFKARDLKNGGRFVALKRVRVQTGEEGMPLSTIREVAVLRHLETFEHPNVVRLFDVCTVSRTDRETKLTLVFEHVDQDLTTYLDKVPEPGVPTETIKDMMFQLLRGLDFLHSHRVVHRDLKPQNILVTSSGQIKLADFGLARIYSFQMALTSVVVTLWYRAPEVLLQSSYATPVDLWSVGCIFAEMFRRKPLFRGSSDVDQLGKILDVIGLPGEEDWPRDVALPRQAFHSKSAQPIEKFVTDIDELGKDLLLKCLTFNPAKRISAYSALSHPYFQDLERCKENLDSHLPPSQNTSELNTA
Sequence of CDK6/Cyclin D3 (P30281 whole entry partner): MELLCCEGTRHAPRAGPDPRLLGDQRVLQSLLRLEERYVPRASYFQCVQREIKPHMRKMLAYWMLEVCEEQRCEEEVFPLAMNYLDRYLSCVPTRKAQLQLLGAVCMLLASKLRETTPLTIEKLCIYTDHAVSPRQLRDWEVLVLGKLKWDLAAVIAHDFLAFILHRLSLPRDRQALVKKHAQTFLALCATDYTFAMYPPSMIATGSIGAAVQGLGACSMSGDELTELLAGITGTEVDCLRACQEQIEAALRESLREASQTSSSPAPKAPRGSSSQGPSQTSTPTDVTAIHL
Method: as §1

Sequence of CDK4/Cyclin D1 (P11802 whole entry): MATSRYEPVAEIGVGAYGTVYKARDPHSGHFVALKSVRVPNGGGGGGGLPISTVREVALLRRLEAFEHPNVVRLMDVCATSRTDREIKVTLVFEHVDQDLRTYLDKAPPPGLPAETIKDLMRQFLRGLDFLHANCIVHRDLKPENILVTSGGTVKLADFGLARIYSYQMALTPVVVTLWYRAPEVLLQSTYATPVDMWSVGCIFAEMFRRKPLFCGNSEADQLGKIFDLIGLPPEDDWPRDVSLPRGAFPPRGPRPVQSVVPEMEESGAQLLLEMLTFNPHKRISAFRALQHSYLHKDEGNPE
Sequence of CDK4/Cyclin D1 (P24385 whole entry partner): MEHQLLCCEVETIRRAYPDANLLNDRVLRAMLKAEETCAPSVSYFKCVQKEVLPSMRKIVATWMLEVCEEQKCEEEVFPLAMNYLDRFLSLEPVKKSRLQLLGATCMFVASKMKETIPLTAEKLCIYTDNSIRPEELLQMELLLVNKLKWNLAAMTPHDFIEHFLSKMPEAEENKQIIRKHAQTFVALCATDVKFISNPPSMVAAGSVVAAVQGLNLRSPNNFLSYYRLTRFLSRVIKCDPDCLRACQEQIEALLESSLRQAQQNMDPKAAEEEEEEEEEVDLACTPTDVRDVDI

SMILES | IC50 (CDK4/Cyclin D1) | IC50 (CDK6/Cyclin D3)
CC(C)c1c(CO)cnc2ccc(-c3nc(N[C@@H]4CCOC[C@@H]4O)ncc3F)cc12 [Example 1, (3R,4R)-4-((5-fluoro-4-(3-(hydroxymethyl)-4-isopropylquinolin-6-yl)pyrimidin-2-yl)amino)tetrahydro-2H-pyran-3-ol] | 7.9 nM | 107 nM
CC(C)c1c(CN2CCOCC2)cnc2ccc(-c3nc(N[C@@H]4CCOC[C@@H]4O)ncc3F)cc12 [Example 2, (3R,4R)-4-((5-fluoro-4-(4-isopropyl-3-(morpholinomethyl)quinolin-6-yl)pyrimidin-2-yl)amino)tetrahydro-2H-pyran-3-ol] | 21 nM | 456 nM
CC(C)c1c(CN[C@@H]2CCCOC2)cnc2ccc(-c3nc(N[C@@H]4CCOC[C@@H]4O)ncc3F)cc12 [Example 3, (3R,4R)-4-((5-fluoro-4-(4-isopropyl-3-((((R)-tetrahydro-2H-pyran-3-yl)amino)methyl)quinolin-6-yl)pyrimidin-2-yl)amino)tetrahydro-2H-pyran-3-ol] | 16 nM | 1100 nM
CC(C)c1c(CN)cnc2ccc(-c3nc(N[C@@H]4CCOC[C@@H]4O)ncc3F)cc12 [Example 4, (3R,4R)-4-((4-(3-(aminomethyl)-4-isopropylquinolin-6-yl)-5-fluoropyrimidin-2-yl)amino)tetrahydro-2H-pyran-3-ol] | 2.6 nM | 190 nM
CC(C)c1c(CN2CC(O)C2)cnc2ccc(-c3nc(N[C@@H]4CCOC[C@@H]4O)ncc3F)cc12 [Example 5, 1-((6-(5-fluoro-2-(((3R,4R)-3-hydroxytetrahydro-2H-pyran-4-yl)amino)pyrimidin-4-yl)-4-isopropylquinolin-3-yl)methyl)azetidin-3-ol] | 26 nM | 1830 nM
CC(C)c1c(CN2CCC[C@H](C#N)C2)cnc2ccc(-c3nc(N[C@@H]4CCOC[C@@H]4O)ncc3F)cc12 [Example 6, (S)-1-((6-(5-fluoro-2-(((3R,4R)-3-hydroxytetrahydro-2H-pyran-4-yl)amino)pyrimidin-4-yl)-4-isopropylquinolin-3-yl)methyl)piperidine-3-carbonitrile] | 7 nM | 273 nM
CC(C)c1c(CN2CCC[C@@H](C#N)C2)cnc2ccc(-c3nc(N[C@@H]4CCOC[C@@H]4O)ncc3F)cc12 [Example 7, (R)-1-((6-(5-fluoro-2-(((3R,4R)-3-hydroxytetrahydro-2H-pyran-4-yl)amino)pyrimidin-4-yl)-4-isopropylquinolin-3-yl)methyl)piperidine-3-carbonitrile] | 24 nM | 544 nM
CC(C)c1c(CN2[C@H](C)COC[C@@H]2C)cnc2ccc(-c3nc(N[C@@H]4CCOC[C@@H]4O)ncc3F)cc12 [Example 8, (3R,4R)-4-((4-(3-(((3R,5S)-3,5-dimethylmorpholino)methyl)-4-isopropylquinolin-6-yl)-5-fluoropyrimidin-2-yl)amino)tetrahydro-2H-pyran-3-ol] | 21 nM | 921 nM
CC(C)c1c(CN2[C@H](C)COC[C@H]2C)cnc2ccc(-c3nc(N[C@@H]4CCOC[C@@H]4O)ncc3F)cc12 [Example 9, (3R,4R)-4-((4-(3-(((3R,5R)-3,5-dimethylmorpholino)methyl)-4-isopropylquinolin-6-yl)-5-fluoropyrimidin-2-yl)amino)tetrahydro-2H-pyran-3-ol] | 22 nM | 532 nM
CC(C)c1c(CNC2CC2)cnc2ccc(-c3nc(N[C@@H]4CCOC[C@@H]4O)ncc3F)cc12 [Example 10, (3R,4R)-4-((4-(3-((cyclopropylamino)methyl)-4-isopropylquinolin-6-yl)-5-fluoropyrimidin-2-yl)amino)tetrahydro-2H-pyran-3-ol] | 12 nM | 510 nM
CC(C)c1c(CN[C@H]2CCOC2)cnc2ccc(-c3nc(N[C@@H]4CCOC[C@@H]4O)ncc3F)cc12 [Example 11, (3R,4R)-4-((5-fluoro-4-(4-isopropyl-3-((((S)-tetrahydrofuran-3-yl)amino)methyl)quinolin-6-yl)pyrimidin-2-yl)amino)tetrahydro-2H-pyran-3-ol] | 16 nM | 1270 nM
CC(C)c1c(C2(O)CCCC2)cnc2ccc(-c3nc(N[C@@H]4CCOC[C@@H]4O)ncc3F)cc12 [Example 12, (3R,4R)-4-((5-fluoro-4-(3-(1-hydroxycyclopentyl)-4-isopropylquinolin-6-yl)pyrimidin-2-yl)amino)tetrahydro-2H-pyran-3-ol] | 5.5 nM | 300 nM
CC(C)c1c(CN2[C@H](C)COC[C@@H]2C)cnc2c(F)cc(-c3nc(N[C@@H]4CCOC[C@@H]4O)ncc3F)cc12 [Example 13, (3R,4R)-4-((4-(3-(((3R,5S)-3,5-dimethylmorpholino)methyl)-8-fluoro-4-isopropylquinolin-6-yl)-5-fluoropyrimidin-2-yl)amino)tetrahydro-2H-pyran-3-ol] | 7.6 nM | 287 nM
CC(C)c1c(CNC2CC(F)(F)C2)cnc2c(F)cc(-c3nc(N[C@@H]4CCOC[C@@H]4O)ncc3F)cc12 [Example 14, (3R,4R)-4-((4-(3-(((3,3-difluorocyclobutyl)amino)methyl)-8-fluoro-4-isopropylquinolin-6-yl)-5-fluoropyrimidin-2-yl)amino)tetrahydro-2H-pyran-3-ol] | 15 nM | 462 nM
CC(C)c1c(CN[C@@H]2CCCOC2)cnc2c(F)cc(-c3nc(N[C@@H]4CCOC[C@@H]4O)ncc3F)cc12 [Example 15, (3R,4R)-4-((5-fluoro-4-(8-fluoro-4-isopropyl-3-((((R)-tetrahydro-2H-pyran-3-yl)amino)methyl)quinolin-6-yl)pyrimidin-2-yl)amino)tetrahydro-2H-pyran-3-ol] | 21 nM | 702 nM
CC(C)c1c(C2(O)CCCC2)cnc2c(F)cc(-c3nc(N[C@@H]4CCOC[C@@H]4O)ncc3F)cc12 [Example 16, (3R,4R)-4-((5-fluoro-4-(8-fluoro-3-(1-hydroxycyclopentyl)-4-isopropylquinolin-6-yl)pyrimidin-2-yl)amino)tetrahydro-2H-pyran-3-ol] | 4.4 nM | 93 nM
CC(C)c1c(C(C)(C)O)cnc2c(F)cc(-c3nc(N[C@@H]4CCOC[C@@H]4O)ncc3Cl)cc12 [Example 17, (3R,4R)-4-((5-chloro-4-(8-fluoro-3-(2-hydroxypropan-2-yl)-4-isopropylquinolin-6-yl)pyrimidin-2-yl)amino)tetrahydro-2H-pyran-3-ol] | 9 nM | 228 nM
CC(C)c1c(C2(O)CCOCC2)cnc2c(F)cc(-c3nc(N[C@@H]4CCOC[C@@H]4O)ncc3Cl)cc12 [Example 18, (3R,4R)-4-((5-chloro-4-(8-fluoro-3-(4-hydroxytetrahydro-2H-pyran-4-yl)-4-isopropylquinolin-6-yl)pyrimidin-2-yl)amino)tetrahydro-2H-pyran-3-ol] | 8.4 nM | 273 nM
CC(C)c1c(CN2[C@H](C)COC[C@@H]2C)cnc2c(F)cc(-c3nc(N[C@@H]4CCOC[C@@H]4O)ncc3Cl)cc12 [Example 21, (3R,4R)-4-((5-chloro-4-(3-(((3R,5S)-3,5-dimethylmorpholino)methyl)-8-fluoro-4-isopropylquinolin-6-yl)pyrimidin-2-yl)amino)tetrahydro-2H-pyran-3-ol] | 7.9 nM | 409 nM
